Results as given in the NIST ThermoML archive (doi:10.1016/j.jct.2014.10.001).
Values joined by “and” are separate entries in the source; they are usually repeats but may differ in a detail not shown here. Identical values can stand only once.

Test: xn = mol fraction of the nth substance listed
Conditions: Gas, Buoyancy - hydrostatic balance with magnetic suspension - one sinker

FCC(F)(F)F [1,1,1,2-tetrafluoroethane] + CCC
Conditions | mass density
258.14 K, 113.78 kPa, x1 = 0.5401 | 4.1262 kg/m3
258.14 K, 154.11 kPa, x1 = 0.5401 | 5.651 kg/m3
258.15 K, 190.72 kPa, x1 = 0.5401 | 7.0674 kg/m3
258.15 K, 242.95 kPa, x1 = 0.5401 | 9.1445 kg/m3
258.16 K, 154.01 kPa, x1 = 0.7989 | 6.8087 kg/m3
258.16 K, 168.96 kPa, x1 = 0.2391 | 4.7661 kg/m3
258.17 K, 103.24 kPa, x1 = 0.2391 | 2.8628 kg/m3
258.17 K, 106.9 kPa, x1 = 0.7989 | 4.6538 kg/m3
258.18 K, 197.88 kPa, x1 = 0.7989 | 8.8817 kg/m3
258.19 K, 252.34 kPa, x1 = 0.2391 | 7.2822 kg/m3
263.13 K, 101.57 kPa, x1 = 0.5401 | 3.5945 kg/m3
263.13 K, 101.58 kPa, x1 = 0.5401 | 3.5946 kg/m3
263.14 K, 134.16 kPa, x1 = 0.6201 | 5.0876 kg/m3
263.14 K, 166.53 kPa, x1 = 0.5401 | 5.9917 kg/m3
263.14 K, 183.78 kPa, x1 = 0.7989 | 8.0203 kg/m3
263.14 K, 220.07 kPa, x1 = 0.5401 | 8.0347 kg/m3
263.14 K, 225.37 kPa, x1 = 0.7989 | 9.9705 kg/m3
263.14 K, 281.67 kPa, x1 = 0.5401 | 10.4652 kg/m3
263.15 K, 99.9 kPa, x1 = 0.7989 | 4.2498 kg/m3
263.15 K, 102.04 kPa, x1 = 0.2391 | 2.7715 kg/m3
263.15 K, 145.63 kPa, x1 = 0.7989 | 6.2807 kg/m3
263.15 K, 194.24 kPa, x1 = 0.6201 | 7.4918 kg/m3
263.15 K, 259.7 kPa, x1 = 0.6201 | 10.2107 kg/m3
263.16 K, 203.74 kPa, x1 = 0.2391 | 5.6732 kg/m3
263.17 K, 305.05 kPa, x1 = 0.2391 | 8.7279 kg/m3
268.12 K, 231.64 kPa, x1 = 0.7989 | 10.0266 kg/m3
268.13 K, 104.95 kPa, x1 = 0.7989 | 4.3792 kg/m3
268.13 K, 150.69 kPa, x1 = 0.7989 | 6.3684 kg/m3
268.13 K, 213.45 kPa, x1 = 0.6201 | 8.092 kg/m3
268.14 K, 104.92 kPa, x1 = 0.5401 | 3.6381 kg/m3
268.14 K, 125.37 kPa, x1 = 0.6201 | 4.6466 kg/m3
268.14 K, 190.18 kPa, x1 = 0.7989 | 8.1303 kg/m3
268.14 K, 285.39 kPa, x1 = 0.7989 | 12.5661 kg/m3
268.14 K, 300.29 kPa, x1 = 0.6201 | 11.6624 kg/m3
268.15 K, 183.8 kPa, x1 = 0.5401 | 6.4973 kg/m3
268.15 K, 268.92 kPa, x1 = 0.5401 | 9.7174 kg/m3
268.16 K, 198.02 kPa, x1 = 0.2391 | 5.3921 kg/m3
268.16 K, 341.03 kPa, x1 = 0.5401 | 12.5709 kg/m3
268.17 K, 119.34 kPa, x1 = 0.2391 | 3.1919 kg/m3
268.17 K, 286.65 kPa, x1 = 0.2391 | 7.9728 kg/m3
268.17 K, 365.93 kPa, x1 = 0.2391 | 10.3898 kg/m3
273.1 K, 170.36 kPa, x1 = 0.5401 | 5.8806 kg/m3
273.1 K, 283.04 kPa, x1 = 0.6201 | 10.6873 kg/m3
273.1 K, 358.16 kPa, x1 = 0.6201 | 13.8005 kg/m3
273.1 K, 411.8 kPa, x1 = 0.5401 | 15.1107 kg/m3
273.11 K, 105.09 kPa, x1 = 0.5401 | 3.5743 kg/m3
273.11 K, 121.2 kPa, x1 = 0.6201 | 4.3969 kg/m3
273.11 K, 251.59 kPa, x1 = 0.5401 | 8.853 kg/m3
273.11 K, 262.93 kPa, x1 = 0.7989 | 11.2212 kg/m3
273.11 K, 323.14 kPa, x1 = 0.5401 | 11.5758 kg/m3
273.12 K, 100.04 kPa, x1 = 0.7989 | 4.0831 kg/m3
273.12 K, 122.4 kPa, x1 = 0.2391 | 3.2081 kg/m3
273.12 K, 206.06 kPa, x1 = 0.6201 | 7.6287 kg/m3
273.12 K, 451.8 kPa, x1 = 0.2391 | 12.8024 kg/m3
273.13 K, 144.28 kPa, x1 = 0.7989 | 5.9572 kg/m3
273.13 K, 204.71 kPa, x1 = 0.2391 | 5.4646 kg/m3
273.13 K, 216.26 kPa, x1 = 0.7989 | 9.1063 kg/m3
273.13 K, 288.63 kPa, x1 = 0.2391 | 7.853 kg/m3
273.13 K, 319.28 kPa, x1 = 0.7989 | 13.8595 kg/m3
273.13 K, 364.79 kPa, x1 = 0.2391 | 10.1086 kg/m3
278.12 K, 123.52 kPa, x1 = 0.6201 | 4.396 kg/m3
278.13 K, 236.83 kPa, x1 = 0.6201 | 8.6438 kg/m3
278.14 K, 337.13 kPa, x1 = 0.6201 | 12.6083 kg/m3
278.14 K, 433.01 kPa, x1 = 0.6201 | 16.603 kg/m3
278.15 K, 103.41 kPa, x1 = 0.7989 | 4.1428 kg/m3
278.15 K, 194.41 kPa, x1 = 0.5401 | 6.606 kg/m3
278.15 K, 286.8 kPa, x1 = 0.7989 | 12.0403 kg/m3
278.15 K, 289.3 kPa, x1 = 0.5401 | 10.0435 kg/m3
278.15 K, 381.08 kPa, x1 = 0.7989 | 16.4363 kg/m3 and 16.4338 kg/m3
278.15 K, 419.02 kPa, x1 = 0.5401 | 15.0163 kg/m3
278.15 K, 504.76 kPa, x1 = 0.5401 | 18.5053 kg/m3
278.16 K, 115.44 kPa, x1 = 0.5401 | 3.8575 kg/m3
278.16 K, 152.51 kPa, x1 = 0.7989 | 6.1813 kg/m3
278.16 K, 230.77 kPa, x1 = 0.7989 | 9.5443 kg/m3
278.19 K, 442.42 kPa, x1 = 0.2391 | 12.1807 kg/m3
278.2 K, 102.16 kPa, x1 = 0.2391 | 2.6113 kg/m3
278.2 K, 233.61 kPa, x1 = 0.2391 | 6.1346 kg/m3
278.2 K, 514.55 kPa, x1 = 0.2391 | 14.4261 kg/m3
278.21 K, 366.56 kPa, x1 = 0.2391 | 9.9124 kg/m3
283.13 K, 211.19 kPa, x1 = 0.7822 | 8.4187 kg/m3
283.13 K, 329.43 kPa, x1 = 0.7822 | 13.5211 kg/m3
283.13 K, 459.52 kPa, x1 = 0.7822 | 19.5449 kg/m3
283.14 K, 311.18 kPa, x1 = 0.5401 | 10.6211 kg/m3
283.14 K, 501.49 kPa, x1 = 0.5401 | 17.8976 kg/m3
283.15 K, 101.13 kPa, x1 = 0.5401 | 3.3055 kg/m3
283.15 K, 102.6 kPa, x1 = 0.7822 | 3.9912 kg/m3
283.15 K, 120.94 kPa, x1 = 0.6201 | 4.2161 kg/m3
283.15 K, 198.01 kPa, x1 = 0.6201 | 7.0141 kg/m3
283.15 K, 210.93 kPa, x1 = 0.5401 | 7.0468 kg/m3
283.15 K, 416.97 kPa, x1 = 0.5401 | 14.5789 kg/m3
283.15 K, 602.24 kPa, x1 = 0.5401 | 22.0672 kg/m3
283.16 K, 415.7 kPa, x1 = 0.6201 | 15.476 kg/m3
283.16 K, 514.53 kPa, x1 = 0.6201 | 19.6465 kg/m3
283.17 K, 114.18 kPa, x1 = 0.2391 | 2.8713 kg/m3
283.17 K, 457.55 kPa, x1 = 0.2391 | 12.3388 kg/m3
283.17 K, 636.31 kPa, x1 = 0.2391 | 17.9209 kg/m3
283.18 K, 185.02 kPa, x1 = 0.2391 | 4.7134 kg/m3
283.18 K, 298.86 kPa, x1 = 0.2391 | 7.7872 kg/m3
283.18 K, 383.01 kPa, x1 = 0.2391 | 10.158 kg/m3
288.1 K, 100.89 kPa, x1 = 0.7822 | 3.85 kg/m3
288.12 K, 214.43 kPa, x1 = 0.7822 | 8.3795 kg/m3
288.12 K, 325.43 kPa, x1 = 0.7822 | 13.0428 kg/m3
288.12 K, 552.55 kPa, x1 = 0.7822 | 23.4956 kg/m3
288.12 K, 552.56 kPa, x1 = 0.7822 | 23.4963 kg/m3
288.12 K, 709.34 kPa, x1 = 0.5401 | 26.0161 kg/m3
288.13 K, 102.08 kPa, x1 = 0.5401 | 3.2763 kg/m3
288.13 K, 317.7 kPa, x1 = 0.5401 | 10.6307 kg/m3
288.13 K, 424.11 kPa, x1 = 0.5401 | 14.5146 kg/m3
288.13 K, 446.77 kPa, x1 = 0.6201 | 16.3715 kg/m3
288.13 K, 448.02 kPa, x1 = 0.7822 | 18.5148 kg/m3
288.13 K, 514.46 kPa, x1 = 0.5401 | 17.9692 kg/m3
288.13 K, 613.19 kPa, x1 = 0.5401 | 21.9339 kg/m3
288.14 K, 209.2 kPa, x1 = 0.5401 | 6.8504 kg/m3
288.14 K, 232.81 kPa, x1 = 0.6201 | 8.1461 kg/m3
288.14 K, 332.05 kPa, x1 = 0.6201 | 11.8593 kg/m3
288.15 K, 122.39 kPa, x1 = 0.6201 | 4.191 kg/m3
288.15 K, 553.06 kPa, x1 = 0.6201 | 20.7897 kg/m3
288.43 K, 753.42 kPa, x1 = 0.2391 | 21.238 kg/m3
288.45 K, 459.95 kPa, x1 = 0.2391 | 12.1079 kg/m3
288.45 K, 680.21 kPa, x1 = 0.2391 | 18.823 kg/m3
288.46 K, 121.21 kPa, x1 = 0.2391 | 2.9907 kg/m3
288.46 K, 302.44 kPa, x1 = 0.2391 | 7.7138 kg/m3
288.46 K, 384.07 kPa, x1 = 0.2391 | 9.9536 kg/m3
288.46 K, 571.46 kPa, x1 = 0.2391 | 15.4131 kg/m3
288.47 K, 209.6 kPa, x1 = 0.2391 | 5.253 kg/m3
293.14 K, 105.81 kPa, x1 = 0.7822 | 3.9639 kg/m3
293.15 K, 425.23 kPa, x1 = 0.7822 | 17.0517 kg/m3
293.15 K, 454.02 kPa, x1 = 0.5401 | 15.2811 kg/m3
293.15 K, 540.93 kPa, x1 = 0.7822 | 22.3179 kg/m3
293.15 K, 558.53 kPa, x1 = 0.5401 | 19.2207 kg/m3
293.15 K, 637.77 kPa, x1 = 0.7822 | 27.0005 kg/m3
293.15 K, 758.84 kPa, x1 = 0.5401 | 27.3827 kg/m3
293.15 K, 856.96 kPa, x1 = 0.5401 | 31.7378 kg/m3
293.16 K, 103.22 kPa, x1 = 0.5401 | 3.2534 kg/m3
293.16 K, 213.45 kPa, x1 = 0.7822 | 8.1673 kg/m3
293.16 K, 216.96 kPa, x1 = 0.5401 | 6.9744 kg/m3
293.16 K, 311.55 kPa, x1 = 0.7822 | 12.1753 kg/m3
293.16 K, 328.59 kPa, x1 = 0.5401 | 10.787 kg/m3
293.16 K, 662.93 kPa, x1 = 0.5401 | 23.3629 kg/m3
293.17 K, 427.29 kPa, x1 = 0.6201 | 15.2346 kg/m3
293.17 K, 611.78 kPa, x1 = 0.6201 | 22.7331 kg/m3
293.18 K, 124.6 kPa, x1 = 0.6201 | 4.1917 kg/m3
293.18 K, 229.76 kPa, x1 = 0.6201 | 7.8762 kg/m3
293.18 K, 328.76 kPa, x1 = 0.6201 | 11.4874 kg/m3
293.18 K, 525.37 kPa, x1 = 0.6201 | 19.1338 kg/m3
293.19 K, 728.09 kPa, x1 = 0.6201 | 27.8461 kg/m3
